# Measured values as given in patent publication US9249356B2, “Liquid crystal dye mixture” (PEER+ B.V., priority 2011, dated 2016).
# Key:
# Format in all cases: physicochemical
# [1] = Light fastness; conditions: in words
# Source text: As a third requirement, a high light stability of the dye is desirable. A high light stability allows a long lifetime of the devices in high power conditions such as sunlight, lasers or interior lighting.
# [2] = Solubility in fluorinated liquid crystal
# [3] = Dichroic ratio in a liquid crystal host
# Source text: The purpose of these LC-dye mixtures is to be able to control the absorption or fluorescence emission (or both) of light by the dye. A measure of how well the absorption can be controlled is the dichroic ratio of the dye in the LC mixture. The dichroic ratio is the ratio in absorption for light coming in parallel to the absorption axis of the molecule (A∥) versus light traveling perpendicular to the absorption axis (A—|—):
# DR=A∥/A—|—. Another way of expressing the same property is the order parameter (S), which is defined as […]
# [4] = Fluorescence / quantum yield
# Source text: As a fourth requirement, the fluorescent dichroic dye should have high quantum efficiency. The quantum efficiency is the ratio of emitted photons to absorbed photons of the dye. The higher the quantum efficiency of the dye, the better the dye fluoresces. A good fluorescent dye has a quantum efficiency of at least 0.5, but preferably close to 1.
# [5] = Maximum solubility in nematic liquid crystal mixture MLC6653; conditions: nematic LC (MLC6653 named)
# Source text: As is apparent from the table above, these dyes suffer from a low order parameter. The Lumogen IR 765 and Lumogen IR788 have poor fluorescence and have no significant solubility (<<0.1 wt %) in commercial liquid crystal mixture MLC6653 from (Merck Darmstadt), a nematic liquid crystal mixture with positive dielectric anisotropy and a positive delta n.
# [6] = Peak absorption and order parameter of Lumogen dyes in nematic liquid crystal
# Source text: Light fast rylene type dyes are commercially sold by BASF under the name Lumogen.
SMILES,light fastness [1],solubility [2] [wt %],dichroic ratio [3],fluorescence ([4]; in words),quantum yield ([4]; apolar solvents (cyclohexane)),maximum solubility [5] [wt %],Peak absorption ([6]; in nematic LC) [nm],order parameter in nematic LC ([6]; nematic LC)
CCCCCCCCCCCCC1(CCCCCCCCCCCC)c2cc(N3C(=O)c4ccc5c6ccc7c8c(ccc(c9ccc(c4c59)C3=O)c86)C(=O)N(C(CCCCCC)CCCCCC)C7=O)ccc2-c2ccc(N3C(=O)c4ccc5c6ccc7c8c(ccc(c9ccc(c4c59)C3=O)c86)C(=O)N(C(CCCCCC)CCCCCC)C7=O)cc21 [PFP],good,0.2,12,good,–,–,–,–
"CCCCCCC(CCCCCC)N1C(=O)c2ccc3c4ccc5c6c(ccc(c7ccc(c2c37)C1=O)c64)C(=O)N(c1ccc(-c2ccc3c4ccc6c7c(ccc(c8cccc2c83)c74)C(=O)N(c2c(C(C)C)cccc2C(C)C)C6=O)cc1)C5=O [PBI-PMI, 2-(4-(2-(2,6-diisopropylphenyl)-1,3-dioxo-2,3-dihydro-1H-benzo[5,10]anthra[2,1,9-def]isoquinolin-8-yl)phenyl)-9-(tridecan-7-yl)anthra[2,1,9-def:6,5,10-d′e′f′]diisoquinoline-1,3,8,10(2H,9H)-tetraone]",comparable to the lightfastness of the single perylene bisimide,> 0.2,14,–,0.77,–,–,–
CC(C)c1cccc(C(C)C)c1N1C(=O)c2cc(Oc3ccccc3)c3c4c(Oc5ccccc5)cc5c6c(cc(Oc7ccccc7)c(c7c(Oc8ccccc8)cc(c2c37)C1=O)c64)C(=O)N(c1c(C(C)C)cccc1C(C)C)C5=O [Lumogen F red 305],–,–,–,–,–,0.2,577.5,−0.12
